Experimental findings from the SangsterLogP compilation are described below.

Data set [1] in a line: method code SF-FL, from DOI: 10.1562/0031-8655(2004)79<242:pmolop>2.0.co;2, PMID: 15115296. Conditions: pH 7.4.
A short description of data set [2]: method code SF-AS, from DOI: 10.1002/jps.2600600712, PMID: 4398902.
A short description of data set [3]: method code SF-HPLC, from DOI: 10.1002/ps.2780220406.
Data set [4] can be described thus: method code SF-AS, from DOI: 10.1016/s0021-9673(01)89384-5.
Assay in data set [5]: not given
This is another data set of the same source.

Data set [6] can be described thus: method code SF-TN, from Korenman, I M.; Gurevich, N.; Kulagina, G. (1973). Extraction of certain n-alkylamines from aqueous solutions. Zh. Prikl. Khim., 46(3)726-728.
A short description of data set [7]: method code SF-GLC, from DOI: 10.1002/etc.5620080910.
Assay in data set [8]: not given
The source holds these as a separate data set.

Assay in data set [9]: not given
This is another data set of the same source.

Assay in data set [10]: not given
The source holds these as a separate data set.

Assay in data set [11]: not given
This is another data set of the same source.

Data set [12] in a line: method code SF, from Ganellin, C. R., & Durant, G. J. (1981). Histamine H2-receptor agonists and antagonists. Burgers Medicinal Chemistry, 3, 487-552. Conditions: pH 11.8.
A short description of data set [13]: method code G-HPLC, from DOI: 10.1016/s0021-9673(01)94303-1.
Data set [14] in a line: method code SF-AS, from DOI: 10.1021/jm0495273.s001, PMID: 15974600. Conditions: pH 7.4.
Assay in data set [15]: not given
This is another data set of the same source.

Assay in data set [16]: not given
The source holds these as a separate data set.

The nature of data set [17]: method code SF-GLC, from Boikov, Yu.; Shibaev, V.; Gaidamaka, V.; V'yunov, K. (1989). Study of correlation between extraction characteristics of glycidyl ethers and theri structure. 62(1)177-179.
A short description of data set [18]: method code SF-AS, from Suikov, S.Yu.; Bondarenko, A.V.; Bogza, S.L.; Lutsyk, A.I. (2003). Distribution of 5-aminopyrazoles and 5-aminoisoxazoles in the octanol-water system. Ukr. Khim. Zh. (Russ. Ed.), 69(5/6)31-34.
The nature of data set [19]: method code SF-AS, from DOI: 10.1016/0223-5234(93)90135-2. The note with it: pH 12.0.
Data set [20] is described as follows: method code SF-TN, from DOI: 10.1007/bf00632830.
Data set [21] is described as follows: method code SF-HPLC, from DOI: 10.1016/j.ejps.2013.10.002, PMID: 24161609.
The nature of data set [22]: method code SF-GLC, from DOI: 10.1002/jps.2600620103, PMID: 4734195.
Data set [23] can be described thus: method code SF, from DOI: 10.1016/s0960-894x(00)80094-3. The note with it: pH 7.4.
The nature of data set [24]: method code SF-AS, from DOI: 10.1016/0378-5173(93)90388-v.
Assay in data set [25]: not given
This is another data set of the same source.

Assay in data set [26]: not given
This is another data set of the same source.

Assay in data set [27]: not given
This is another data set of the same source.

Data set [28] in a line: method code SF, from DOI: 10.1021/bi00507a030, PMID: 7213619. The note with it: pH 1.0.
A short description of data set [29]: method code SF-RC, from DOI: 10.1023/a:1015913817221, PMID: 2798313. Conditions: pH 7.4.
The nature of data set [30]: method code SF-AS, from PMID: 2551304. The note with it: pH 7.4.
Data set [31] is described as follows: method code SF-HPLC, from DOI: 10.1016/s0021-9673(01)88640-4.
Data set [32] in a line: method code SF-AS, from PMID: 2160644.
Data set [33] in a line: method code SF-GLC, from DOI: 10.1021/es00131a005.
Assay in data set [34]: not given
This is another data set of the same source.

Data set [35] is described as follows: method code SF-AS, from DOI: 10.1021/jm020389w, PMID: 12620073. The note with it: pH 7.4.
The nature of data set [36]: method code SF-GLC, from DOI: 10.1021/ac00241a023.
A short description of data set [37]: method code SF-AS, from DOI: 10.1016/0223-5234(92)90105-a.
Assay in data set [38]: not given
The source holds these as a separate data set.

Data set [39] can be described thus: method code SF-TN, from Korenman, I M.; Lunicheva, V.; Pomerantseva, G.; Khairulina, D. (1974). Distribution of methacrylic acid between organic solvents and water. Zh. Prikl. Khim., 47(10)2432-2434.
A short description of data set [40]: method code SF, from DOI: 10.1016/j.jiec.2010.03.003.
Data set [41] can be described thus: method code SF-HPLC, from DOI: 10.1016/0378-5173(93)90356-k. Conditions: pH 7.4.
The nature of data set [42]: method code SF-RC, from DOI: 10.1016/s0969-8051(01)00233-5, PMID: 11518650.
Data set [43] is described as follows: method code SF-AS, from DOI: 10.1016/0039-9140(93)80165-n, PMID: 18965747. The note with it: pH 2.0.
A short description of data set [44]: method code SF-AS, from Lee, B.; Shin, J.; Lim, M.; Jang, T.; Park, J.; Kim, K.; Kang, W. (1997). Partition Property of 5-Nitrothiopyrimidine Nucleoside. Bull Korean Chem Soc, 18(7)734-736. The note with it: pH 7.0.
Data set [45] can be described thus: method code SF-AS, from DOI: 10.1021/jm0104926, PMID: 11960499.
A short description of data set [46]: method code SF-CR+AS, from DOI: 10.1021/bi00514a045, PMID: 7248282. Conditions: pH 7.0.

For `Oc1cccc(-c2c3nc(c(-c4cccc(O)c4)c4ccc([nH]4)c(-c4cccc(O)c4)c4nc(c(-c5cccc(O)c5)c5ccc2[nH]5)C=C4)C=C3)c1`, in [1], the log distribution coefficient (logD) (in general, lipophilicity at a set pH, counting ionised and neutral species) is 4.93.
`Clc1cccc(C(Cl)(Cl)Cl)n1` had a logP of 3.41.
For `S=C1CCCO1`, in data set [2], the logP came to 0.6.
`Clc1ccc(Cn2cncn2)cc1Cl`: the logP in data set [3] was found to be 2.54.
The compound `Cc1nccnn1` had a logP in [4] of -0.55.
The compound `Oc1c(Br)c(Br)c(Br)c(Br)c1Br` registered a logP in [5] of 5.3.
As to `CCCCN`, the logP in data set [6] stood at 0.74.
Take `O=[N+]([O-])c1ccc(Cl)cc1Cl`: the logP in data set [7] is 3.05.
The compound `COP(=O)(OC)OC=C(Cl)Cl` registered a logP in [8] of 1.4.
In turn, `FC(F)(F)Cl` came in with a logP in [9] of 1.56.
The compound `ClCC(Cl)Cl` returned a logP in data set [10] of 1.98.
Consider `COP(=O)(OC)OC(Br)C(Cl)(Cl)Br` (centres undefined), for which the logP in data set [11] amounted to 2.19.
Consider `NCCc1c[nH]cn1`, for which the logD in data set [12] is -0.7.
`CCCCBr` gave a logP in data set [13] of 2.75.
`Nc1nc(S)c2[nH]cnc2n1` showed a log distribution coefficient (logD) in data set [14] of -0.16.
For the compound `Cc1nccn1C`, the logP in data set [15] is -0.04.
`Cn1cc[nH]c1=S` yielded a logP in data set [16] of -0.22.
For `CCOCC1CO1` (centres undefined), the logP in [17] came out at 0.27.
Regarding `Nc1c(-c2ccccc2)c(-c2ccccc2)nn1-c1ccccc1`, the logP in [18] came to 4.04.
`NCCc1nccs1` returned a logD in data set [19] of 0.16.
For the compound `CN(C)C`, the logP in [20] was 0.27.
For the compound `O=C(O)[C@H](O)[C@@H](O)C(=O)O`, the logP in [21] is -1.2.
`CC(C)C(C)O` (centres undefined) registered a logP in data set [22] of 1.28.
`NC1CCN(O)C1=O` (centres undefined) came in with a pH-dependent lipophilicity (logD) in data set [23] of -3.52.
The compound `CC1CCC(=O)N1` (centres undefined) had a logP in [24] of -0.1.
For the compound `CCCOC(=O)CC(Cc1cncn1C)C(CC)C(=O)OCc1ccc(COC(=O)C(CC)C(CC(=O)OCCC)Cc2cncn2C)cc1` (centres undefined), the logP in data set [25] turned out to be 5.47.
As to `CCC[N+](=O)[O-]`, the logP in data set [26] came to 0.86.
In the case of `O=[N+]([O-])c1cc(Cl)ccc1Cl`, the logP in [27] is 3.09.
In turn, `CCC(N)=O` had a pH-dependent lipophilicity (logD) in [28] of -0.66.
In data set [29], `NC(N)=S` displayed a logD of -0.92.
Compound `Nc1ccncc1F` displayed a logD in data set [30] of 0.63.
Take `N#CN=[N+]([O-])c1cnccn1`: the logP in [31] turned out to be 0.1.
`O=C(O)c1cc(=O)[nH]c(=O)[nH]1` returned a logP in [32] of -0.83.
Turning to `Clc1ccc(Cl)c(Cl)c1Cl`, the logP in data set [33] was determined as 4.6.
The compound `CCOCCO` registered a logP in data set [34] of -0.28.
`CCOC(=O)Nc1ccc2cc3ccc(N)c(CO)c3nc2c1`: the pH-dependent lipophilicity (logD) in [35] was 1.55.
With `Clc1cccc(Cl)c1Cl`, the logP in [36] was determined as 4.05.
The compound `CCOC(=O)Nc1ccc2nn(C)nc2c1` showed a logP in data set [37] of 1.83.
As for `O=C(O)CNCP(=O)(O)O`, in [38], the logP is -3.3.
For `C=C(C)C(=O)O`, the logP in data set [39] was determined as 0.93.
On to `COC(C)(C)C`, for which the logP in [40] was 1.41.
As to `O=c1[nH]cc(F)c(=O)[nH]1`, the pH-dependent lipophilicity (logD) in data set [41] was -0.7.
Turning to `CN(C)CCCF`, in data set [42], the logP amounted to 1.27.
`CC(C)(C)C(=O)O`: the logD in data set [43] is 1.42.
Turning to `COc1ccc(-c2cc(N)n[nH]2)cc1`, in data set [18], the logP was 1.42.
In the case of `S=c1cc[nH]c(=S)[nH]1`, the log distribution coefficient (logD) in [44] was -0.86.
For `[N-]=[N+]=CC(F)(F)F`, the logP in data set [45] came out at 1.6.
In [1], `O=S(=O)(O)c1ccc(-c2c3nc(c(-c4ccc(S(=O)(=O)O)cc4)c4ccc([nH]4)c(-c4ccccc4)c4nc(c(-c5ccccc5)c5ccc2[nH]5)C=C4)CC3)cc1` yielded a logD of 1.79.
Take `N#CSO`: the pH-dependent lipophilicity (logD) in [46] came to 0.32.
